Results published in BindingDB's records for doi:10.1016/j.ejmech.2020.113121 (Virginia Tech, 2021).

Assay: Inhibition of recombinant human Sphk2 expressed in yeast strain KYA1 assessed as increase in yeast growth measured after 24 hrs

CCCCCCCCCn1ccc2cc(-c3noc([C@@H]4CCCN4C(=N)N)n3)ccc21
EC50: 170 nM
